{
  "source": "patent US9176114B2",
  "about": "“Cell culture model for acquired chemoresistance of chronic myelogenous leukemia and related methods for identifying agents to overcome resistance” (CITY OF HOPE, priority 2007, dated 2015)",
  "key": {"[1]": {"test_system": "KCL-22 cells", "experiment": "Resistance assay: relapse of KCL-22 cells in prolonged liquid culture (CML acquired resistance model)", "type": "cell-based, human", "details": "for relapse of KCL-22 cells on 5 μM STI-571 in combination / cell death by the inhibitor alone: 300 μM splitomicin or 15 mM nicotinamide; for cell death by the inhibitor alone: first two weeks; for relapse of KCL-22 cells on imatinib (STI-571) in combination with the inhibitor: prolonged culture", "from_the_text": "Cells were maintained in these cultures without changing medium.\nCells were maintained in these cultures without changing medium. Aliquots of cells were taken out at specified time points and cell numbers counted using a hematocytometer. Cell viability was accessed by trypan blue exclusion where necessary."}, "[2]": {"test_system": "HIC1", "experiment": "HIC1 expression / SIRT1 level after HDAC and DNMT inhibitors", "type": "cell-based, human", "details": "KCL-22 cells, alone or in combination", "from_the_text": "Total cellular RNA with Trizol (Invitrogen) using a standard protocol. First strand DNA was synthesized and HIC1 expression by quantitative real-time RT-PCR using a kit with SYBR Green label (Invitrogen) as per the manufacture's instruction on a BioRad machine OPTICON. The following are the HIC1 primers (spanning introns), 5′-[…]-3′(exon 1a) and 5′-[…]-3′ (Exon 2). [>ref|NT—010718.15|Hs17—10875:1561637-1565694 Homo sapiens chromosome 17 genomic contig, reference assembly]\nSIRT1 expression was analyzed by Western blot using 1:5000 diluted rabbit monoclonal SIRT1 antibody (Epitomics). Controls used were GAPDH or actin as loading controls with rabbit anti-GAPDH (Trevigen) or anti-actin (Sigma) at 1:5000 dilution. GAPDH [>ref|NT—009759.15|Hs12—9916:6497433-6502281 Homo sapiens chromosome 12 genomic contig, reference assembly] primers used are as follows: […]"}, "[3]": {"test_system": "KCL-22M cells", "details": "1 μM inhibitor", "description": "Cell cycle was analyzed by fixing cells with 70% ethanol at −20° C. overnight. After washing, cells were resuspended in phosphate-buffered saline containing 1 mg/ml RNase A, incubated for 30 min at 37° C., and then stained with propidine iodine (50 μg/ml) for 30 min at room temperature before flow cytometry analysis. Cell proliferation was analyzed using a XTT Cell Proliferation kit (Roche Applied Science), and apoptosis was analyzed with annexin V kit (BD Pharmingen) as per the manufacturer's instruction."}, "[4]": {"test_system": "BCR-ABL mutants", "details": "cited from earlier work"}, "[5]": {"test_system": "CML patients with T315I mutation", "details": "human, in vivo; cited from earlier work"}, "[6]": {"test_system": "FOXO1", "experiment": "Flow cytometry assay of acetylation of FOXO1 in KCL-22 cells", "type": "cell-based, human", "details": "compound treatment for 24 h", "method": "SIRT1 inhibitor-induced acetylation of cellular SIRT1 substrates, Ku70 and FOXO proteins, are determined by immunoprecipitation of these proteins followed by Western blot analysis for acetyl lysine. Acetylation of FOXO1 is also directly examined by flow cytometry-based analysis as done in FIG. 40D."}, "[7]": {"molecular_target": "T1, SIRT1 (Homo sapiens, UniProt Q96EB6)", "T1 sequence (Q96EB6 1-747)": "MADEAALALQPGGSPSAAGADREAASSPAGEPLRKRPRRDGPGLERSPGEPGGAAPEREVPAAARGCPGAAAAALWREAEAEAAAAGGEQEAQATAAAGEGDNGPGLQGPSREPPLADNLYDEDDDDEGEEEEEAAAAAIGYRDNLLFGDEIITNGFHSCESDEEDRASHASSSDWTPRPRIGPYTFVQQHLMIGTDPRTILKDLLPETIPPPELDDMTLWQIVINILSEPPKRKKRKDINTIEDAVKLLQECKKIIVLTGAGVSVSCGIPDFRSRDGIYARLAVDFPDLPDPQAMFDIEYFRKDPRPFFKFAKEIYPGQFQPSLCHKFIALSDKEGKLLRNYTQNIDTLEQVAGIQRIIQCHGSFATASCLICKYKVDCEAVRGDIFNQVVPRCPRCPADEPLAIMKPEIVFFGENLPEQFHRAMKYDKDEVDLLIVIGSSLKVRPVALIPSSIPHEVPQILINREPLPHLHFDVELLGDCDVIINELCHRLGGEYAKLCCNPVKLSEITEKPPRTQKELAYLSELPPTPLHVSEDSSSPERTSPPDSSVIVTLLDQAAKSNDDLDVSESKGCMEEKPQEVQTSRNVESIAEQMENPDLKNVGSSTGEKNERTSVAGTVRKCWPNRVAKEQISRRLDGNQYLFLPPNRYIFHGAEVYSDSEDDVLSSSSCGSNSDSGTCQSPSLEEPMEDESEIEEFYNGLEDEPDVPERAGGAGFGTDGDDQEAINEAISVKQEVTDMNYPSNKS", "experiment": "FRET-based SIRT1 inhibition assay", "details": "All compounds in 50 μM"}},
  "note": "“Also recorded” adds a separate entry of the source.",
  "data": [
    {"molecule": "Nc1ncn([C@H]2C[C@H](O)[C@@H](CO)O2)c(=O)n1", "note": "[AZA, 5-aza-2-deoxycytidine]", "values": [
      {"measurement": "relapse on AZA plus STI-571", "setting": "[1]; 1 μM AZA with STI-571", "result": "did successfully block relapse on 2.5 and 5 μM; also recorded: blocked relapse at 2.5 and 5 μM of STI-571"},
      {"measurement": "reactivation of HIC1 expression / reduction of SIRT1 level", "setting": "[2]", "result": "could not reactivate HIC1 expression or reduce SIRT1 level"},
      {"measurement": "growth of KCL-22M cells", "setting": "[3]", "result": "inhibited its growth but did not promote significant cell death"}
    ]},
    {"molecule": "CC(=O)N[C@@H](CS)C(=O)O", "note": "[NAC, N-acetylcysteine]", "values": [
      {"measurement": "cytotoxicity", "setting": "[1]; 50 mM NAC", "result": "significant cytotoxicity"}
    ]},
    {"molecule": "Cc1cn(-c2cc(NC(=O)c3ccc(C)c(Nc4nccc(-c5cccnc5)n4)c3)cc(C(F)(F)F)c2)cn1", "note": "[Nilotinib]", "values": [
      {"measurement": "BCR-ABL mutants inhibited", "setting": "[4]", "result": "inhibits most of the known mutants with the exception of the T315I mutation"}
    ]},
    {"molecule": "Cc1cc(Nc2cc(N3CCN(C)CC3)nc(Sc3ccc(NC(=O)C4CC4)cc3)n2)n[nH]1", "note": "[VX-680]", "values": [
      {"measurement": "inhibition of T315I BCR-ABL", "setting": "[4]", "result": "potently inhibits"},
      {"measurement": "clinical response", "setting": "[5]", "result": "Three CML patients with T315I mutation responded"}
    ]},
    {"molecule": "O=C(NN=Cc1c(O)ccc2ccccc12)c1ccncc1", "note": "[compound 22, N′-((2-hydroxyl-1-naphthyl)methylene)isonicotinohydrazide]", "values": [
      {"measurement": "inhibitory activity (block of CML relapse) compared with compound 163580", "setting": "[1]", "result": "better inhibitory activity than 163580"},
      {"measurement": "acetylation of FOXO1", "setting": "[6]", "result": "outperformed sirtinol and tenovin-6"},
      {"measurement": "SIRT1 inhibition in FRET-based biochemical assay", "setting": "[7]", "result": "outperformed sirtinol and tenovin-6"}
    ]},
    {"molecule": "CC(=NNC(=O)c1ccncc1)c1ccc2ccccc2c1O", "note": "[compound 24, N′-(1-(1-hydroxy-2-naphthyl)ethylidene)isonicotinohydrazide]", "values": [
      {"measurement": "inhibitory activity (block of CML relapse) compared with compound 163580", "setting": "[1]", "result": "better inhibitory activity than 163580"},
      {"measurement": "acetylation of FOXO1", "setting": "[6]", "result": "outperformed sirtinol and tenovin-6"},
      {"measurement": "SIRT1 inhibition in FRET-based biochemical assay", "setting": "[7]", "result": "outperformed sirtinol and tenovin-6"}
    ]},
    {"molecule": "Oc1ccc2ccccc2c1C1=NNc2n[nH]c(=S)n2N1", "note": "[compound 163580]", "values": [
      {"measurement": "prevention of CML cell relapse upon imatinib compared with sirtinol (50 μM)", "setting": "[1]", "result": "more effective in preventing CML cell relapse upon imatinib treatment than an effective dose of sirtinol"}
    ]},
    {"molecule": "COc1ccc2nc3cc(Cl)ccc3c(NCCCCN3CCCC3)c2n1.Cl.Cl.Cl", "note": "[compound 261408]", "values": [
      {"measurement": "prevention of CML cell relapse upon imatinib compared with sirtinol (50 μM)", "setting": "[1]", "result": "more effective in preventing CML cell relapse upon imatinib treatment than an effective dose of sirtinol"},
      {"measurement": "toxicity to cells", "setting": "[1]", "result": "too toxic to cells"}
    ]},
    {"molecule": "Clc1ccc2nc(CCSCCc3nc4ccc(Cl)cc4[nH]3)[nH]c2c1", "note": "[compound 628445]", "values": [
      {"measurement": "prevention of CML cell relapse upon imatinib compared with sirtinol (50 μM)", "setting": "[1]", "result": "more effective in preventing CML cell relapse upon imatinib treatment than an effective dose of sirtinol"}
    ]},
    {"molecule": "CCN(C(C)=O)c1cnc(C=NNC(N)=S)c2ccccc12", "note": "[compound 687305]", "values": [
      {"measurement": "prevention of CML cell relapse upon imatinib compared with sirtinol (50 μM)", "setting": "[1]", "result": "more effective in preventing CML cell relapse upon imatinib treatment than an effective dose of sirtinol"}
    ]},
    {"molecule": "NC(=O)c1cccnc1", "note": "[nicotinamide]", "values": [
      {"measurement": "lowest dose that blocked relapse on imatinib", "setting": "[1]", "result": 1, "unit": "µM"},
      {"measurement": "relapse of KCL-22 cells on 5 μM STI-571 in combination", "setting": "[1]", "result": "effectively blocked; also recorded: blocked relapse"},
      {"measurement": "cell death by the inhibitor alone", "setting": "[1]", "result": "did not, by themselves, induce significant cell death"},
      {"measurement": "relapse of KCL-22 cells on imatinib (STI-571) in combination with the inhibitor", "setting": "[1]", "result": "blocks relapse"}
    ]},
    {"molecule": "O=C1CCc2c(ccc3ccccc23)O1", "note": "[splitomicin]", "values": [
      {"measurement": "relapse of KCL-22 cells on 5 μM STI-571 in combination", "setting": "[1]", "result": "effectively blocked; also recorded: blocked relapse"},
      {"measurement": "cell death by the inhibitor alone", "setting": "[1]", "result": "did not, by themselves, induce significant cell death"},
      {"measurement": "relapse of KCL-22 cells on imatinib (STI-571) in combination with the inhibitor", "setting": "[1]", "result": "blocks relapse"}
    ]}
  ]
}
